{"source": "patent US20240335431A1", "about": "“1-H-PYRROLO[2,3-c]PYRIDINE COMPOUNDS” (Acerta Pharma B.V., priority 2023, published 2024)", "key": {"CBAM-44728": {"tested_on": "CBAM-44728", "test": "MLLr AML patient derived disseminated xenograft model CBAM-44728", "assay_type": "in vivo, female NSG mice", "settings": "150 mg/kg oral twice daily, 21 days", "description": "Viably frozen A. CBAM-68552, B. CBAM-44728, and C. DFAL-49600 single cell suspensions from spleens of donor mice were prepared into frozen stock. Flow cytometry antibodies for Ter119 (Miltenyi 130-112-914), mouse CD45 (Miltenyi 130-110-665), and human CD45 (Miltenyi 130-110-634) and Fixable Live Dead Stain (ThermoFisher; #L34963) for disease evaluation via flow cytometry on MACSQuant (Miltenyi). Compound 56-2 was formulated in water at pH 4.5-5 using 1M MSA as pH-adjusting agent at concentrations up to 100 mg/mL to achieve a uniform suspension and dosed twice daily by oral gavage 10 mL/kg.\nA. CBAM-68552, B. CBAM-44728, and C. DFAL-49600 cells were thawed and 1 million cells implanted via the tail vein in to female NSG mice. Mice were randomized into groups of 5 when human CD45 levels reached average of A. CBAM-68552 6.5%, B. CBAM-44728 4.8%, and C. DFAL-49600 12.4% in the bone marrow of satellite animals. Mice were treated for 21 days with vehicle (water at pH 4.5-5 using 1 M MSA) or Compound 56-2 at 150 mg/kg. Compound 56-2 was dosed orally twice daily 8/16 hours apart and mice were monitored for overall survival. FIGS. 3-A, 3-B, and 3-C further illustrate the effect of treatment with Compound 56-2 in human MLLr AML Patient Derived Disseminated Xenograft Models A. CBAM-68552, B. CBAM-44728, and C. DFAL-49600, respectively."}, "MOLM-13 AML cells": {"tested_on": "MOLM-13 AML cells", "test": "MLLr AML xenograft model MOLM-13", "assay_type": "in vivo, female CB17 SCID mice", "settings": "for tumor response (in words): 30 mg/kg", "description": "MOLM-13 cells were grown in RPM1 1640 (Gibco, #21875091) supplemented with 10% FBS (Gibco; #10091-148) and 1% Pen/Strep (Gibco; #15140-122). Cells were harvested and resuspended in PBS/Matrigel (Corning; #CLS354234) (50/50). Compound 56-2 was formulated in water at pH 4.5-5 using 1 M MSA as pH-adjusting agent at the concentrations up to 100 mg/mL to achieve a uniform suspension and dosed twice daily by oral gavage 10 mL/kg.\n1 million human MOLM-13 AML cells were implanted subcutaneously in the right flank of female CB17 SCID mice. Mice were randomized into groups of 5 when average tumor volume reached approximately 160 mm^3. Mice were treated for 21 days with vehicle (water at pH 4.5-5 using 1 M MSA) or Compound 56-2 at 30, 100, or 200 mg/kg. Test compound was dosed orally twice daily 8/16 hours apart. The group administered Compound 56-2 at 30, 100, 200 mg/kg were monitored for regrowth for 3 weeks. […] FIG. 2A illustrates the effect of treatment with Compound 56-2 on tumor volume in this MLLr MOLM-13 human AML cancer xenograft mouse model.\nIn a second cohort of mice, MOLM-13 AML cells were implanted and randomized as described above. Mice were treated until tumor outgrowth with vehicle (water at pH 4.5-5 using 1 M MSA) or Compound 56-2 at 30 mg/kg or 150 mg/kg. Test compound was dosed orally twice daily 8/16 hours apart. […] FIG. 2B illustrates the effect of treatment with Compound 56-2 on tumor volume in this MLLr MOLM-13 human AML cancer xenograft mouse model."}, "[1]": {"settings": "second cohort, 30 mg/kg oral twice daily, 41 days or less"}}, "data": [{"smiles": "Cc1c(C(=O)C2CCN(C(=O)[C@@H]3CCC(C)(C)N3)CC2)c2ccncc2n1-c1ccc(F)cc1C(=O)N(C(C)C)C(C)C", "note": "(single isomer, unassigned) [Compound 56-2]", "values": [{"measurement": "LATENCY (overall survival)", "setting": "CBAM-44728", "value": 106, "unit": "days"}, {"measurement": "% REGRESSION AT END OF TREATMENT", "setting": "MOLM-13 AML cells; 30 mg/kg oral twice daily, 21 days", "value": 6.2, "unit": "%"}, {"measurement": "% TUMOR REGROWTH AT STUDY END", "setting": "MOLM-13 AML cells; 30 mg/kg oral twice daily, 21 days, monitored 3 weeks", "value": 100, "unit": "%"}, {"measurement": "tumor response (in words)", "setting": "MOLM-13 AML cells; 21 days", "value": "outgrew after treatment end"}, {"measurement": "tumor response at end of treatment (in words)", "setting": "MOLM-13 AML cells; 100 mg/kg and 200 mg/kg, 21 days", "value": "complete tumor regressions"}, {"measurement": "% REGRESSION AT END OF TREATMENT", "setting": "MOLM-13 AML cells; 100 mg/kg oral twice daily, 21 days", "value": 89.8, "unit": "%"}, {"measurement": "% TUMOR REGROWTH AT STUDY END", "setting": "MOLM-13 AML cells; 100 mg/kg oral twice daily, 21 days, monitored 3 weeks", "value": 80, "unit": "%"}, {"measurement": "% REGRESSION AT END OF TREATMENT", "setting": "MOLM-13 AML cells; 200 mg/kg oral twice daily, 21 days", "value": 98.5, "unit": "%"}, {"measurement": "% TUMOR REGROWTH AT STUDY END", "setting": "MOLM-13 AML cells; 200 mg/kg oral twice daily, 21 days, monitored 3 weeks", "value": 100, "unit": "%"}, {"measurement": "% REGRESSION AT END OF TREATMENT", "setting": "MOLM-13 AML cells; [1]", "value": 0, "unit": "%"}, {"measurement": "% TUMOR REGROWTH AT STUDY END", "setting": "MOLM-13 AML cells; [1]", "value": 0, "unit": "%"}, {"measurement": "tumor response (in words)", "setting": "MOLM-13 AML cells; second cohort, 41 days or less", "value": "all animals outgrew treatment"}, {"measurement": "% REGRESSION AT END OF TREATMENT", "setting": "MOLM-13 AML cells; second cohort, 150 mg/kg oral twice daily, 90 days", "value": 100, "unit": "%"}, {"measurement": "tumor response at end of treatment (in words)", "setting": "MOLM-13 AML cells; second cohort, 150 mg/kg, 90 days", "value": "complete tumor regression"}, {"measurement": "% TUMOR REGROWTH AT STUDY END", "setting": "MOLM-13 AML cells; second cohort, 150 mg/kg, 90 days, monitored additional 70 days", "value": 100, "unit": "%"}]}]}
